Assay results: patent publication US20230393122A1 (priority 2022, published 2023)
Like-named read-outs stand apart in the source and are kept apart here.

How the values were obtained:
SARS-CoV-2 WT [1] = assay: Viral load reduction assay in EPSC-derived eSTB cells (qRT-PCR of supernatant viral copies); assay type: cell-based; conditions: for IC50: read-out: IC50 for SARS-CoV-2 in eSTBs
SARS-CoV-2 [2] = conditions: Vero E6 cells; read-out: IC50 against SARS-CoV-2 in Vero E6 cells; cited from earlier work
MERS-CoV = assay type: cell-based; conditions: 48 h.p.i., efficiency comparable to that in Vero E6 cells
SARS-CoV-2 WT [3] = assay: Viral load reduction assay in naïve-eSTB cells; assay type: cell-based; conditions: compared with EPSC-eSTBs
[4] = system: SARS-CoV-2 infected eSTBs; assay type: cell-based, human
SARS-CoV-2 [5] = conditions: cited from earlier work

CC(C)C[C@H](NC(=O)OCc1ccccc1)C(=O)N[C@@H](CC1CCNC1=O)C(O)S(=O)(=O)O (some centres unmarked) [GC376]
IC50 (SARS-CoV-2 WT [1]): 31.2 ± 5.6 nM | IC50 (SARS-CoV-2 [2]): 700 nM

CCC(CC)COC(=O)[C@H](C)N[P@](=O)(OC[C@H]1O[C@@](C#N)(c2ccc3c(N)ncnn23)[C@H](O)[C@@H]1O)Oc1ccccc1 [remdesivir]
IC50 (SARS-CoV-2 WT [1]; Severe acute respiratory syndrome coronavirus 2, 48 h): 3.2 ± 0.1 nM

CC(C)C[C@H](NC(=O)OCc1ccccc1)C(=O)N[C@@H](C[C@@H]1CCNC1=O)C(O)S(=O)(=O)[O-].[Na+] (some centres unmarked) [GC376]
Viral copy in the supernatant, SARS-CoV-2 WT (FIG. 17B) (SARS-CoV-2 WT [1]; EPSC-derived eSTB cells): dose-dependent inhibition | MERS-CoV replication in eSTBs (MERS-CoV): effectively block | IC50 against SARS-CoV-2 in naïve-eSTBs (SARS-CoV-2 WT [3]): similarly low | eSTB development and differentiation along PI-TB to PI-STB pseudotime trajectory [4]: partially rescued | Survival of mice with a fatal SARS-CoV-2 infection (SARS-CoV-2 [5]): increases survival
